Literature values, collected in patent EP4106725B1, “WATER-SOLUBLE SOLID DISPERSION OF QUERCETIN, FORMS THEREOF, A METHOD OF OBTAINING THEREOF, USE OF ALKALINE AGENT, AND A KIT” ("Scientific Industrial Centre "Borshchahivskiy Chemical …, priority 2020, dated 2021).

How the values were obtained:
[1] = crystalline dehydrated state and dihydrate

| SMILES | pKa (acidity constant of the alkaline agent) | acidity constant value pKa1 (hydroxylic group in 4'-position) | acidity constant value pKa2 (hydroxylic group in 7-position) | solubility in water [1] |
| --- | --- | --- | --- | --- |
| O=C([O-])[O-].[Na+].[Na+] [Na2CO3, sodium carbonate] | 10.33 | – | – | – |
| O=c1c(O)c(-c2ccc(O)c(O)c2)oc2cc(O)cc(O)c12 [quercetin, 2-(3,4-dihydroxyphenyl)-3,5,7-trihydroxy-4H-chromen-4-one] | – | 6.62 ± 0.04 | 9.7 ± 0.3 | ~ 1 mg/100 mL |
